Measured values: the NIST ThermoML archive (doi:10.1016/j.jct.2008.10.010)

Assay: molar heat capacity at constant pressure; xn = mol fraction of the nth substance listed
Details: 101.3 kPa, Liquid, Small sample (50 mg) DSC

CCC(C)(C)O [2-methylbutan-2-ol] + CCCCCCC
Details	molar heat capacity at constant pressure [J/K/mol]
300.15 K, x1 = 0.7015	252.48
300.15 K, x1 = 0.8023	251.41
300.15 K, x1 = 0.9139	250.21
300.15 K, x1 = 0.9609	249.66
301.14 K, x1 = 0.0061	225.7
301.14 K, x1 = 0.0494	236.34
301.14 K, x1 = 0.1	242.42
301.14 K, x1 = 0.1999	248.44
301.14 K, x1 = 0.2993	251.7
301.14 K, x1 = 0.4051	253.31
301.14 K, x1 = 0.4986	253.99
301.14 K, x1 = 0.5981	254.13
301.14 K, x1 = 0.7015	253.67
301.14 K, x1 = 0.8023	252.61
301.14 K, x1 = 0.9139	251.4
301.14 K, x1 = 0.9609	250.8
301.16 K, x1 = 0.0249	230.74
301.58 K, x1 = 0.1547	246.46
302.14 K, x1 = 0.0061	226.13
302.14 K, x1 = 0.0249	231.02
302.14 K, x1 = 0.0494	236.64
302.14 K, x1 = 0.1	243.03
302.14 K, x1 = 0.1547	246.89
302.14 K, x1 = 0.1999	249.24
302.14 K, x1 = 0.2993	252.65
302.14 K, x1 = 0.4051	254.36
302.14 K, x1 = 0.4986	255.15
302.14 K, x1 = 0.5981	255.29
302.14 K, x1 = 0.7015	254.9
302.14 K, x1 = 0.8023	253.83
302.14 K, x1 = 0.9139	252.62
302.14 K, x1 = 0.9609	251.98
303.15 K, x1 = 0.0061	226.42
303.15 K, x1 = 0.0249	231.23
303.15 K, x1 = 0.0494	236.93
303.15 K, x1 = 0.1	243.44
303.15 K, x1 = 0.1547	247.5
303.15 K, x1 = 0.1999	249.92
303.15 K, x1 = 0.2993	253.53
303.15 K, x1 = 0.4051	255.32
303.15 K, x1 = 0.4986	256.2
303.15 K, x1 = 0.5981	256.41
303.15 K, x1 = 0.7015	256.05
303.15 K, x1 = 0.8023	255
303.15 K, x1 = 0.9139	254.11
303.15 K, x1 = 0.9609	253.07
304.14 K, x1 = 0.0061	226.83
304.14 K, x1 = 0.0494	237.28
304.14 K, x1 = 0.1	243.93
304.14 K, x1 = 0.1547	248.12
304.14 K, x1 = 0.1999	250.66
304.14 K, x1 = 0.4986	257.22
304.14 K, x1 = 0.8023	256.13
304.14 K, x1 = 0.9139	254.91
304.14 K, x1 = 0.9609	254.18
304.16 K, x1 = 0.0249	231.5
304.16 K, x1 = 0.2993	254.39
304.16 K, x1 = 0.4051	256.27
304.16 K, x1 = 0.5981	257.54
304.16 K, x1 = 0.7015	257.2
305.14 K, x1 = 0.0061	227.18
305.14 K, x1 = 0.0249	231.73
305.14 K, x1 = 0.0494	237.51
305.14 K, x1 = 0.1	244.44
305.14 K, x1 = 0.1547	248.76
305.14 K, x1 = 0.1999	251.35
305.14 K, x1 = 0.2993	255.22
305.14 K, x1 = 0.4051	257.25
305.14 K, x1 = 0.4986	258.3
305.14 K, x1 = 0.5981	258.63
305.14 K, x1 = 0.7015	258.36
305.14 K, x1 = 0.8023	257.38
305.14 K, x1 = 0.9139	256.1
305.14 K, x1 = 0.9609	255.35
306.15 K, x1 = 0.0061	227.53
306.15 K, x1 = 0.0249	231.92
306.15 K, x1 = 0.0494	237.81
306.15 K, x1 = 0.1	244.85
306.15 K, x1 = 0.1547	249.34
306.15 K, x1 = 0.1999	252.03
306.15 K, x1 = 0.2993	256.04
306.15 K, x1 = 0.4051	258.23
306.15 K, x1 = 0.4986	259.33
306.15 K, x1 = 0.5981	259.69
306.15 K, x1 = 0.7015	259.47
306.15 K, x1 = 0.8023	258.63
306.15 K, x1 = 0.9139	257.22
306.15 K, x1 = 0.9609	256.43
307.14 K, x1 = 0.0061	227.97
307.16 K, x1 = 0.0249	232.13
307.16 K, x1 = 0.0494	238.05
307.16 K, x1 = 0.1	245.3
307.16 K, x1 = 0.1547	249.89
307.16 K, x1 = 0.1999	252.7
307.16 K, x1 = 0.2993	256.85
307.16 K, x1 = 0.4051	259.16
307.16 K, x1 = 0.4986	260.39
307.16 K, x1 = 0.5981	260.8
307.16 K, x1 = 0.7015	260.58
307.16 K, x1 = 0.8023	259.83
307.16 K, x1 = 0.9139	258.36
307.16 K, x1 = 0.9609	257.53
308.14 K, x1 = 0.0061	228.36
308.14 K, x1 = 0.0249	232.33
308.14 K, x1 = 0.0494	238.3
308.14 K, x1 = 0.1	245.7
308.14 K, x1 = 0.2993	257.61
308.14 K, x1 = 0.4051	260.05
308.14 K, x1 = 0.4986	261.33
308.14 K, x1 = 0.5981	261.79
308.14 K, x1 = 0.7015	261.67
308.14 K, x1 = 0.8023	260.9
308.14 K, x1 = 0.9139	259.4
308.14 K, x1 = 0.9609	258.61
308.16 K, x1 = 0.1547	250.43
308.16 K, x1 = 0.1999	253.31
309.15 K, x1 = 0.0061	228.7
309.15 K, x1 = 0.0249	232.53
309.15 K, x1 = 0.0494	238.53
309.15 K, x1 = 0.1	246.14
309.15 K, x1 = 0.1547	250.99
309.15 K, x1 = 0.1999	253.95
309.15 K, x1 = 0.2993	258.43
309.15 K, x1 = 0.4051	260.95
